Data from publication PMC9687812, “Discovery of Trace Amine-Associated Receptor 1 (TAAR1) Agonist 2-(5-(4′-Chloro-[1,1′-biphenyl]-4-yl)-4H-1,2,4-triazol-3-yl)ethan-1-amine (LK00764) for the Treatment of Psychotic Disorders” (Biomolecules, 2022).
Read-outs that look alike come from different tables or passages of the source.

Legend:
[1] = biological target: T1, TAAR1 (Homo sapiens, UniProt Q96RJ0); assay: BRET-based cellular cAMP (EPAC biosensor) assay of TAAR1 agonism in transfected HEK-293 cells; conditions: for Emax: HEK293, read-out: Emax: maximum observed activation of TAAR1 relative to that observed for 1 μM of β-PEA
T1 sequence (Q96RJ0 1-339): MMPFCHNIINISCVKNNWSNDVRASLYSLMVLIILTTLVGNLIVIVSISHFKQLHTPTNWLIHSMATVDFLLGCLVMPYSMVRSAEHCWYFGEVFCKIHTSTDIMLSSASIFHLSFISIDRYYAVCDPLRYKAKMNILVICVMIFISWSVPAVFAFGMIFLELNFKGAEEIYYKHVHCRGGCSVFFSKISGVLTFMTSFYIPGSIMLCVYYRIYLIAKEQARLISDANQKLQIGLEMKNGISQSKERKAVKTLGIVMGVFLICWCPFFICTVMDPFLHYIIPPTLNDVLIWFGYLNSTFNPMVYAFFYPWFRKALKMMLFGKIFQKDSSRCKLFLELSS
Description: The Bioluminescence Resonance Energy Transfer approach (BRET) has been used for functional activity experiments. HEK-293 cells were transiently transfected with cDNA for TAARs and cAMP BRET biosensor (EPAC) and then plated in a 96-well plate, as described [23]. All compounds were tested at the initial concentration of 10 µM. […] A natural agonist of TAAR1 β-phenylethylamine (β-PEA) was used as a positive control.

[2] = TAAR1 activation, BRET assay, HEK-293, mean from 3 assays
[3] = relative to 1 μM β-PEA, mean from 3 BRET assays, errors ±5–10%

## 2-(5-(2-[3,4-Difluorophenoxy]phenyl)-4H-1,2,4-triazol-3-yl) Hydrochloride [Compound 50]
[1]; [2]
  EC50: inactive
[1]; [3]
  Emax: maximum observed activation of TAAR1 relative to that observed for 1 μM of β-PEA: inactive

## 2-(5-(3-Methyl-4-[([4-(trifluoromethyl)benzyl]oxy)phenyl]-4H-1,2,4-triazol-3-yl)) Hydrochloride [Compound 49]
[1]; [2]
  EC50: inactive
[1]; [3]
  Emax: maximum observed activation of TAAR1 relative to that observed for 1 μM of β-PEA: inactive

## 2-(5-(4-Ethylphenyl)-4H-1,2,4-triazol-3-yl)ethan-1-amine Hydrochloride [Compound 26]
[1]; [2]
  EC50: > 1000 nM
[1]; [3]
  Emax: maximum observed activation of TAAR1 relative to that observed for 1 μM of β-PEA: 71

## COc1ccc(-c2nnc(CCN)[nH]2)cc1.Cl [Compound 6, 2-(5-(4-Methoxyphenyl)-4H-1,2,4-triazol-3-yl)ethan-1-amine Hydrochloride]
other
  melting point: 248 to 250 °C
[1]
  EC50: > 1000 nM
  Emax: 56%

## COc1cccc(-c2nnc(CCN)[nH]2)c1.Cl [Compound 7, 2-(5-(3-Methoxyphenyl)-4H-1,2,4-triazol-3-yl)ethan-1-amine Hydrochloride]
other
  melting point: 235 to 236 °C
[1]
  EC50: 910 nM
  Emax: 132%

## Cl.NCCc1nnc(-c2cccc(C(F)(F)F)c2)[nH]1 [Compound 8, 2-(5-(3-[Trifluoromethyl]phenyl)-4H-1,2,4-triazol-3-yl)ethan-1-amine Hydrochloride]
[1]; [2]
  EC50: 210 nM
[1]; [3]
  Emax: maximum observed activation of TAAR1 relative to that observed for 1 μM of β-PEA: 108

## Cl.NCCc1nnc(-c2ccc(OC(F)(F)F)cc2)[nH]1 [Compound 9, 2-(5-(4-[Trifluoromethoxy]phenyl)-4H-1,2,4-triazol-3-yl)ethan-1-amine Hydrochloride]
other
  melting point: 253 to 254 °C
[1]
  EC50: 310 nM
  Emax: 116%

## Cl.NCCc1nnc(-c2ccncc2)[nH]1 [Compound 10, 2-(5-(Pyridin-4-yl)-4H-1,2,4-triazol-3-yl)ethan-1-amine Hydrochloride]
other
  melting point: 257 to 258 °C
[1]
  Emax: 47%
[1]; [2]
  EC50: > 1000 nM

## COc1ccc(-c2nnc(CCN)[nH]2)cc1OC.Cl [Compound 11, 2-(5-(3,4-Dimethoxyphenyl)-4H-1,2,4-triazol-3-yl)ethan-1-amine Hydrochloride]
other
  melting point: 209 to 210 °C
[1]; [2]
  EC50: inactive
[1]; [3]
  Emax: maximum observed activation of TAAR1 relative to that observed for 1 μM of β-PEA: inactive

## Cc1cc(-c2nnc(CCN)[nH]2)ccc1Br.Cl [Compound 12, 2-(5-(4-Bromo-3-methylphenyl)-4H-1,2,4-triazol-3-yl)ethan-1-amine Hydrochloride]
other
  melting point: 251 to 252 °C
[1]
  EC50: 812 nM
  Emax: 87%

## Cl.NCCc1nnc(C(c2ccccc2)c2ccccc2)[nH]1 [Compound 13, 2-(5-(Diphenylmethyl)-4H-1,2,4-triazol-3-yl)ethan-1-amine Hydrochloride]
other
  melting point: 236 to 237 °C
[1]; [2]
  EC50: inactive
[1]; [3]
  Emax: maximum observed activation of TAAR1 relative to that observed for 1 μM of β-PEA: inactive

## Cl.NCCc1nnc(-c2ccc([N+](=O)[O-])cc2)[nH]1 [Compound 14, 2-(5-(4-Nitrophenyl)-4H-1,2,4-triazol-3-yl)ethan-1-amine Hydrochloride]
other
  melting point: 239 to 240 °C
[1]; [2]
  EC50: inactive
[1]; [3]
  Emax: maximum observed activation of TAAR1 relative to that observed for 1 μM of β-PEA: inactive

## Cl.NCCc1nnc(-c2ccc(C(F)(F)F)cc2)[nH]1 [Compound 15, 2-(5-(4-[Trifluoromethyl]phenyl)-4H-1,2,4-triazol-3-yl)ethan-1-amine Hydrochloride]
other
  melting point: 254 to 255 °C
[1]; [2]
  EC50: inactive
[1]; [3]
  Emax: maximum observed activation of TAAR1 relative to that observed for 1 μM of β-PEA: inactive

## Cl.NCCc1nnc(-c2cccs2)[nH]1 [Compound 16, 2-(5-(Thiophen-2-yl)-4H-1,2,4-triazol-3-yl)ethan-1-amine Hydrochloride]
other
  melting point: 248 to 250 °C
[1]
  EC50: > 1000 nM
  Emax: 138%

## Cl.NCCc1nnc(COc2ccccc2)[nH]1 [Compound 17, 2-(5-(Phenoxymethyl)-4H-1,2,4-triazol-3-yl)ethan-1-amine Hydrochloride]
other
  melting point: 206 to 207 °C
[1]; [2]
  EC50: inactive
[1]; [3]
  Emax: maximum observed activation of TAAR1 relative to that observed for 1 μM of β-PEA: inactive

## Cl.NCCc1nnc(-c2cccc(C(F)(F)F)c2)[nH]1 [Compound 18]
[1]; [2]
  EC50: inactive
[1]; [3]
  Emax: maximum observed activation of TAAR1 relative to that observed for 1 μM of β-PEA: inactive

## Cl.NCCc1nnc(-c2ccc(OCc3ccccc3)cc2)[nH]1 [Compound 19, 2-(5-(4-(Benzyloxy)phenyl)-4H-1,2,4-triazol-3-yl)ethan-1-amine Hydrochloride]
other
  melting point: 238 to 240 °C
[1]
  EC50: 26 nM
  Emax: 113%
[1]; [2]
  EC50: double-digit nanomolar range

## Cl.NCCc1nnc(-c2cccc(Br)c2)[nH]1 [Compound 20, 2-(5-(3-Bromophenyl)-4H-1,2,4-triazol-3-yl)ethan-1-amine Hydrochloride]
other
  melting point: 239 to 241 °C
[1]
  EC50: 218 nM
  Emax: 124%

## Cl.NCCc1nnc(-c2cc(Cl)cc(Cl)c2)[nH]1 [Compound 21, 2-(5-(3,5-Dichlorophenyl)-4H-1,2,4-triazol-3-yl)ethan-1-amine Hydrochloride]
other
  melting point: 222 to 224 °C
[1]
  EC50: 23 nM
  Emax: 112%

## Cl.NCCc1nnc(-c2ccccc2)[nH]1 [Compound 22, 2-(5-Phenyl-4H-1,2,4-triazol-3-yl)ethan-1-amine Hydrochloride]
other
  melting point: 250 to 252 °C
[1]
  EC50: 283 nM
  Emax: 118%

## Cc1ccccc1-c1nnc(CCN)[nH]1.Cl [Compound 23, 2-(5-(2-Methylphenyl)-4H-1,2,4-triazol-3-yl)ethan-1-amine Hydrochloride]
other
  melting point: 235 to 236 °C
[1]
  EC50: 468 nM
  Emax: 116%

## CN(C)c1cccc(-c2nnc(CCN)[nH]2)c1.Cl [Compound 24, 3-(5-(2-Aminoethyl)-4H-1,2,4-triazol-3-yl)-N,N-dimethylaniline Hydrochloride]
[1]; [2]
  EC50: inactive
[1]; [3]
  Emax: maximum observed activation of TAAR1 relative to that observed for 1 μM of β-PEA: inactive

## CCOc1ccc(-c2nnc(CCN)[nH]2)cc1.Cl [Compound 25, 2-(5-(4-Ethoxyphenyl)-4H-1,2,4-triazol-3-yl)ethan-1-amine Hydrochloride]
other
  melting point: 235 to 236 °C
[1]
  EC50: 550 nM
  Emax: 139%

## Cl.NCCc1nnc(-c2ccccc2[N+](=O)[O-])[nH]1 [Compound 27, 2-(5-(2-Nitrophenyl)-4H-1,2,4-triazol-3-yl)ethan-1-amine Hydrochloride]
[1]; [2]
  EC50: > 1000 nM
[1]; [3]
  Emax: maximum observed activation of TAAR1 relative to that observed for 1 μM of β-PEA: 69

## Cl.NCCc1nnc(-c2ccc(Cl)cc2)[nH]1 [Compound 28, 2-(5-(4-Chlorophenyl)-4H-1,2,4-triazol-3-yl)ethan-1-amine Hydrochloride]
other
  melting point: 239 to 241 °C
[1]
  EC50: 522 nM
  Emax: 107%

## Cl.NCCc1nnc(-c2ccccc2Br)[nH]1 [Compound 29, 2-(5-(2-Bromophenyl)-4H-1,2,4-triazol-3-yl)ethan-1-amine Hydrochloride]
other
  melting point: 194 to 196 °C
[1]
  EC50: 696 nM
  Emax: 111%

## CN(C)c1ccc(-c2nnc(CCN)[nH]2)cc1 [Compound 30, 4-(5-(2-Aminoethyl)-4H-1,2,4-triazol-3-yl)-N,N-dimethylaniline]
other
  melting point: 244 to 246 °C
[1]
  Emax: maximum observed activation of TAAR1 relative to that observed for 1 μM of β-PEA: 122
[1]; [2]
  EC50: 730 nM

## Cc1cc(C)cc(-c2nnc(CCN)[nH]2)c1.Cl [Compound 31, 2-(5-(3,5-Dimethylphenyl)-4H-1,2,4-triazol-3-yl)ethan-1-amine Hydrochloride]
other
  melting point: 232 to 234 °C
[1]
  EC50: 813 nM
  Emax: 117%

## CCOc1cc(-c2nnc(CCN)[nH]2)cc(OCC)c1OCC.Cl [Compound 32, 2-(5-(3,4,5-Triethoxyphenyl)-4H-1,2,4-triazol-3-yl)ethan-1-amine Hydrochloride]
other
  melting point: 253 to 255 °C
[1]; [2]
  EC50: inactive
[1]; [3]
  Emax: maximum observed activation of TAAR1 relative to that observed for 1 μM of β-PEA: inactive

## COc1cc(OC)cc(-c2nnc(CCN)[nH]2)c1.Cl [Compound 33, 2-(5-(3,5-Dimethoxyphenyl)-4H-1,2,4-triazol-3-yl)ethan-1-amine Hydrochloride]
other
  melting point: 245 to 247 °C
[1]
  Emax: 55%
[1]; [2]
  EC50: > 1000 nM

## Cl.NCCc1nnc(-c2ccc(F)cc2)[nH]1 [Compound 34, 2-(5-(4-Fluorophenyl)-4H-1,2,4-triazol-3-yl)ethan-1-amine Hydrochloride]
other
  melting point: 253 to 256 °C
[1]
  EC50: > 1000 nM
  Emax: 169%

## Cl.NCCc1nnc(-c2ccc3ncccc3c2)[nH]1 [Compound 35, 2-(5-(Quinolin-6-yl)-4H-1,2,4-triazol-3-yl)ethan-1-amine Hydrochloride]
other
  melting point: 265 to 267 °C
[1]
  EC50: > 1000 nM
  Emax: 41%

## Cl.NCCc1nnc(-c2cccc(-c3ccc(F)cc3F)c2)[nH]1 [Compound 66, 2-(5-(4′-(2′,4′-Difluoro-(1,1′-biphenyl)-3-yl)-4H-1,2,4-triazol-3-yl)ethan-1-amine Hydrochloride]
[1]; [2]
  EC50: 300 nM

## Cl.NCCc1nnc(-c2cccc(-c3ccc(F)cc3F)c2)[nH]1 [Compound 66]
[1]; [3]
  Emax: maximum observed activation of TAAR1 relative to that observed for 1 μM of β-PEA: 91
